Assay results from PubChem BioAssay (NCI).
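1) Cells in 96-well plates. 2) Compound, 48 h, 5 concentrations. 3) Linear interpolation between surrounding doses. 4) Unreached endpoint = highest concentration. GI50 marks 50% less growth. TGI: total growth inhibition.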

Columns and labels:
Assay in all cases: growth of human tumour cells (NCI), 48 h
OVCAR-3 ovarian = tested on: OVCAR-3 ovarian
HCT-15 colon = tested on: HCT-15 colon
T-47D breast = tested on: T-47D breast
SK-MEL-28 melanoma = tested on: SK-MEL-28 melanoma
NCI-H522 lung = tested on: NCI-H522 lung
786-0 renal = tested on: 786-0 renal
PC-3 prostate = tested on: PC-3 prostate
SK-MEL-2 melanoma = tested on: SK-MEL-2 melanoma
A498 renal = tested on: A498 renal
NCI/ADR-RES ovarian = tested on: NCI/ADR-RES ovarian

| SMILES | TGI (OVCAR-3 ovarian) | TGI (HCT-15 colon) | TGI (T-47D breast) | TGI (SK-MEL-28 melanoma) | TGI (NCI-H522 lung) | TGI (786-0 renal) | TGI (PC-3 prostate) | TGI (SK-MEL-2 melanoma) | TGI (A498 renal) | TGI (NCI/ADR-RES ovarian) | GI50 (OVCAR-3 ovarian) | GI50 (T-47D breast) | GI50 (SK-MEL-28 melanoma) | GI50 (NCI-H522 lung) | GI50 (786-0 renal) | GI50 (PC-3 prostate) | GI50 (SK-MEL-2 melanoma) | GI50 (A498 renal) | GI50 (NCI/ADR-RES ovarian) | GI50 (HCT-15 colon) |
| --- | --- | --- | --- | --- | --- | --- | --- | --- | --- | --- | --- | --- | --- | --- | --- | --- | --- | --- | --- | --- |
| CCO/C=C1\SC(=S)N(c2ccc(OCC)cc2)C1=O | > 100 µM | > 100 µM | > 100 µM | > 100 µM | > 100 µM | > 100 µM | > 100 µM | > 100 µM | > 100 µM | > 100 µM | – | – | – | – | – | – | – | – | – | – |
| COc1ccc2c(C(=O)O)cc3ccccc3c2c1OC | 32.7 µM | – | – | 33.6 µM | 26.8 µM | 31.1 µM | – | 94.9 µM | 40.7 µM | – | – | – | – | – | – | – | – | – | – | – |
| COc1ccc(Nc2cnc3cc(N)cc(N)c3n2)cc1 | 27.3 µM | – | 75.5 µM | 44.8 µM | 43.6 µM | 42.9 µM | 27.9 µM | 32 µM | 59.1 µM | 35 µM | 11.4 µM | 27 µM | 21.2 µM | 16.6 µM | 18.2 µM | 14.7 µM | 14.4 µM | 16.9 µM | 16.4 µM | – |
| O=C1c2ccccc2C(=O)c2c(NC3CCCCC3)ccc(Nc3ccc(S(=O)(=O)O)cc3)c21 | > 100 µM | > 100 µM | > 100 µM | > 100 µM | 52.5 µM | > 100 µM | 83 µM | 99.8 µM | > 100 µM | > 100 µM | – | – | – | – | – | – | – | – | – | – |
| O=C(COc1ccc(/C=C2\Oc3ccccc3C2=O)cc1)Nc1nc2ccccc2s1 | 4.78 µM | > 100 µM | > 100 µM | > 100 µM | 0.487 µM | 53.3 µM | > 70.6 µM | > 68.6 µM | 94.5 µM | > 100 µM | 1.9 µM | 41.4 µM | 37.5 µM | 0.207 µM | 5.26 µM | 2.27 µM | 14.6 µM | 37.1 µM | 2.92 µM | 33.8 µM |
| Nc1nccc(-c2c(-c3ccc(F)cc3)nn3cc(C(F)(F)F)ccc23)n1 | > 25 µM | > 25 µM | > 25 µM | > 25 µM | > 25 µM | > 25 µM | > 25 µM | > 25 µM | > 25 µM | > 25 µM | > 25 µM | > 25 µM | > 25 µM | > 25 µM | > 25 µM | > 25 µM | > 25 µM | > 25 µM | > 25 µM | > 25 µM |
| COc1cc(C(=O)/C=C/c2cccc(Nc3ccnc4cc(Cl)ccc34)c2)cc(OC)c1OC | 1.39 µM | – | 3.17 µM | 3.01 µM | 2.25 µM | 1.95 µM | – | – | 4.21 µM | 2.94 µM | 0.389 µM | 1.22 µM | 1.51 µM | 0.594 µM | 0.564 µM | – | – | 1.54 µM | 0.409 µM | – |
| Cc1ccccc1C(CCCO)C(=O)O (stereo not given) | > 100 µM | > 100 µM | – | > 100 µM | > 100 µM | > 100 µM | – | > 100 µM | > 100 µM | – | – | – | – | – | – | – | – | – | – | – |
| CCOC(=O)C1=C(NC)OCC1=O | > 100 µM | > 100 µM | – | > 100 µM | > 100 µM | > 100 µM | – | > 100 µM | > 100 µM | – | – | – | – | – | – | – | – | – | – | – |
| CC(=O)Nc1ccc(C2CC(c3ccc([N+](=O)[O-])cc3)=Nc3ccccc3S2=O)cc1 (stereo not given) | 54.7 µM | 50.2 µM | – | 43.7 µM | 34.7 µM | 22.6 µM | – | > 100 µM | – | – | – | – | – | – | – | – | – | – | – | – |
| O=C(NCCc1ccccc1)C1C(=O)C(=O)N(CCc2ccccc2)C1=O (stereo not given) | > 100 µM | > 100 µM | – | > 100 µM | > 100 µM | > 100 µM | – | > 100 µM | – | – | – | – | – | – | – | – | – | – | – | – |
| CC12OC(=O)C(C#N)C1(C)C1C(=O)CCCC12 (stereo not given) | > 100 µM | > 100 µM | – | > 100 µM | – | > 100 µM | – | > 100 µM | – | – | – | – | – | – | – | – | – | – | – | – |
| N#Cc1ccc(Sc2nc3ccccc3[nH]2)cc1 | – | – | – | > 100 µM | > 100 µM | > 100 µM | – | > 100 µM | – | – | – | – | – | – | – | – | – | – | – | – |
| O=C1C2C3C=CC(C2C(=O)N1CO)C1C2C(=O)N(CO)C(=O)C2C31 (stereo not given) | > 100 µM | > 62.9 µM | – | > 100 µM | > 100 µM | > 58.6 µM | – | > 100 µM | > 100 µM | – | – | – | – | – | – | – | – | – | – | – |
| COc1ccc2nc(NC(=O)C(=O)CC(=O)c3ccc([N+](=O)[O-])cc3)sc2c1 | > 100 µM | – | – | > 100 µM | > 100 µM | > 100 µM | – | > 100 µM | > 100 µM | – | – | – | – | – | – | – | – | – | – | – |
| COc1ccc(C(O)c2cc3c(N)c(C(=O)Nc4cccc5ccccc45)sc3nc2C)cc1 (stereo not given) | 7.5 µM | > 48.7 µM | > 100 µM | – | – | – | > 100 µM | > 43.2 µM | 0.676 µM | > 50.5 µM | 2.53 µM | > 100 µM | – | 0.157 µM | 0.499 µM | 0.47 µM | 0.811 µM | 0.2 µM | 0.307 µM | 0.326 µM |
| COc1cc(/C=C2\NC(=O)C(Cc3cc(OC)c(OC)c(C)c3OC)N(C(C)=O)C2=O)c(OC)c(C)c1OC (stereo not given) | > 100 µM | – | – | > 100 µM | 79.2 µM | > 100 µM | – | > 100 µM | > 100 µM | – | – | – | – | – | – | – | – | – | – | – |
| COCCOC1=C(Cl)C(=O)c2ccccc2C1=O | 3.06 µM | 9.65 µM | – | 10.9 µM | 2.9 µM | 18.8 µM | 5.55 µM | 9.35 µM | 18.2 µM | 6.7 µM | 1.66 µM | – | 3.22 µM | 1.47 µM | 6.26 µM | 2.18 µM | 2.71 µM | 4.35 µM | 2.39 µM | 2.88 µM |
| O=[N+]([O-])c1ccc(-c2ccc(C3=Nn4c(CNc5ccccc5Cl)nnc4SC3)o2)cc1 | > 100 µM | > 100 µM | – | > 100 µM | > 100 µM | > 100 µM | – | > 100 µM | – | – | – | – | – | – | – | – | – | – | – | – |
| CC(=O)Oc1c(C(=O)[O-])cc(C(C)C)cc1C(C)C.CC(=O)Oc1c(C(=O)[O-])cc(C(C)C)cc1C(C)C.CC(=O)Oc1c(C(=O)[O-])cc(C(C)C)cc1C(C)C.CC(=O)Oc1c(C(=O)[O-])cc(C(C)C)cc1C(C)C.[Cu+2].[Cu+2] | 65.9 µM | > 100 µM | > 100 µM | 33.4 µM | 33.3 µM | > 100 µM | > 100 µM | > 100 µM | 32.8 µM | – | 27.3 µM | 52 µM | 17.9 µM | 18.5 µM | 63.6 µM | 57.3 µM | 40.8 µM | 16 µM | – | 27.5 µM |
